Laboratory results from patent publication US10144732B2 (BIOGEN MA INC., priority 2014, dated 2018).
pIC50: −log10 of the molar value. Where a name gives a salt, the structure may show the parent alone.

biological target: T1, Human ATX protein (Homo sapiens, UniProt Q13822); test: ATX biochemical assay (FRET, FS-3 substrate); conditions: FRET assay, FS-3 2 μM, ATX 1.0 μg/mL, 30 minutes preincubation, 2 hours reaction at room temperature; read-out: IC50
T1 construct: made in house
In short: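 FRET read-out: cleavage of FS-3 (2 μM final) unquenches fluorescein, measured at 485/538 nm after 2 h at room temperature. Before substrate addition, in-house-expressed human autotaxin (1.0 μg/mL) sat with compound for 30 min in pH 7.4 Tris/NaCl/KCl/CaCl2/MgCl2 buffer containing fatty acid free-BSA at 1 mg/mL.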

pIC50	SMILES
≥ 7.00	O=C(CC1CC(N2CCC2)C1)N1CCc2c(C(F)(F)F)nn(Cc3ccc(F)cc3)c2C1 (stereo not shown) [Example 22-1, 2-(3-(Azetidin-1-yl)cyclobutyl)-1-(1-(4-fluorobenzyl)-3-(trifluoromethyl)-4,5-dihydro-1H-pyrazolo[3,4-c]pyridin-6(7H)-yl)ethanone TFA salt]
≥ 7.00	O=C(CC1CC(N2CC(F)(F)C2)C1)N1CCc2c(C(F)(F)F)nn(Cc3ccc(F)cc3)c2C1 (stereo not shown) [Example 22-2, TFA salt]
≥ 7.00	O=C(CC1CC(N2CCCC2)C1)N1CCc2c(C(F)(F)F)nn(Cc3ccc(F)cc3)c2C1 (stereo not shown) [Example 22-3, 1-(1-(4-Fluorobenzyl)-3-(trifluoromethyl)-4,5-dihydro-1H-pyrazolo[3,4-c]pyridin-6(7H)-yl)-2-(3-(pyrrolidin-1-yl)cyclobutyl)ethanone TFA salt]
≥ 7.00	O=C(CC1CC(N2CCCCC2)C1)N1CCc2c(C(F)(F)F)nn(Cc3ccc(F)cc3)c2C1 (stereo not shown) [Example 22-4, 1-(1-(4-Fluorobenzyl)-3-(trifluoromethyl)-4,5-dihydro-1H-pyrazolo[3,4-c]pyridin-6(7H)-yl)-2-(3-(piperidin-1-yl)cyclobutyl)ethanone TFA salt]
≥ 7.00	O=C(CC1CC(N2CCOCC2)C1)N1CCc2c(C(F)(F)F)nn(Cc3ccc(F)cc3)c2C1 (stereo not shown) [Example 22-5, 1-(1-(4-Fluorobenzyl)-3-(trifluoromethyl)-4,5-dihydro-1H-pyrazolo[3,4-c]pyridin-6(7H)-yl)-2-(3-morpholinocyclobutyl)ethanone TFA salt]
≥ 7.00	O=C(CC1CCC(N2CCC2)CC1)N1CCc2c(C(F)(F)F)nn(Cc3ccc(F)cc3)c2C1 (stereo not shown) [Example 22-6, 2-(4-(Azetidin-1-yl)cyclohexyl)-1-(1-(4-fluorobenzyl)-3-(trifluoromethyl)-4,5-dihydro-1H-pyrazolo[3,4-c]pyridin-6(7H)-yl)ethanone TFA salt]
≥ 7.00	O=C(C[C@H]1CC[C@@H](N2CC(F)(F)C2)CC1)N1CCc2c(C(F)(F)F)nn(Cc3ccc(F)cc3)c2C1 [Example 22-7, 2-(cis-4-(3,3-Difluoroazetidin-1-yl)cyclohexyl)-1-(1-(4-fluorobenzyl)-3-(trifluoromethyl)-4,5-dihydro-1H-pyrazolo[3,4-c]pyridin-6(7H)-yl)ethanone TFA salt]
≥ 7.00	O=C(C[C@H]1CC[C@H](N2CC(F)(F)C2)CC1)N1CCc2c(C(F)(F)F)nn(Cc3ccc(F)cc3)c2C1 [Example 22-8, 2-(trans-4-(3,3-difluoroazetidin-1-yl)cyclohexyl)-1-(1-(4-fluorobenzyl)-3-(trifluoromethyl)-4,5-dihydro-1H-pyrazolo[3,4-c]pyridin-6(7H)-yl)ethanone TFA salt]
≥ 7.00	O=C(CC1CCC(N2CCCC2)CC1)N1CCc2c(C(F)(F)F)nn(Cc3ccc(F)cc3)c2C1 (stereo not shown) [Example 22-9, 1-(1-(4-Fluorobenzyl)-3-(trifluoromethyl)-4,5-dihydro-1H-pyrazolo[3,4-c]pyridin-6(7H)-yl)-2-(4-(pyrrolidin-1-yl)cyclohexyl)ethanone TFA salt]
≥ 7.00	O=C(CC1CCC(N2CCOCC2)CC1)N1CCc2c(C(F)(F)F)nn(Cc3ccc(F)cc3)c2C1 (stereo not shown) [Example 22-10, 1-(1-(4-Fluorobenzyl)-3-(trifluoromethyl)-4,5-dihydro-1H-pyrazolo[3,4-c]pyridin-6(7H)-yl)-2-(4-morpholinocyclohexyl)ethanone TFA salt]

Continued, molecule first:

SMILES	pIC50
CS(=O)(=O)NC(=O)[C@H]1CC[C@H](CC(=O)N2CCc3c(C(F)(F)F)nn(Cc4ccc(F)cc4)c3C2)CC1 [Example 19-1, trans-4-(2-(1-(4-Fluorobenzyl)-3-(trifluoromethyl)-4,5-dihydro-1H-pyrazolo[3,4-c]pyridin-6(7H)-yl)-2-oxoethyl)-N-(methylsulfonyl)cyclohexanecarboxamide]	≥ 7.00
CS(=O)(=O)NC(=O)[C@H]1CC[C@@H](CC(=O)N2CCc3c(C(F)(F)F)nn(Cc4ccc(F)cc4)c3C2)CC1 [Example 19-2, cis-4-(2-(1-(4-fluorobenzyl)-3-(trifluoromethyl)-4,5-dihydro-1H-pyrazolo[3,4-c]pyridin-6(7H)-yl)-2-oxoethyl)-N-(methylsulfonyl)cyclohexane carboxamide]	≥ 7.00
NC(=O)[C@H]1CC[C@@H](CC(=O)N2CCc3c(C(F)(F)F)nn(Cc4ccc(F)cc4)c3C2)CC1 [Example 20-1, cis-4-(2-(1-(4-Fluorobenzyl)-3-(trifluoromethyl)-4,5-dihydro-1H-pyrazolo[3,4-c]pyridin-6(7H)-yl)-2-oxoethyl)cyclohexanecarboxamide]	≥ 7.00
NC(=O)[C@H]1CC[C@H](CC(=O)N2CCc3c(C(F)(F)F)nn(Cc4ccc(F)cc4)c3C2)CC1 [Example 20-2, trans-4-(2-(1-(4-Fluorobenzyl)-3-(trifluoromethyl)-4,5-dihydro-1H-pyrazolo[3,4-c]pyridin-6(7H)-yl)-2-oxoethyl)cyclohexanecarboxamide]	≥ 7.00
N#C[C@H]1CC[C@@H](CC(=O)N2CCc3c(C(F)(F)F)nn(Cc4ccc(F)cc4)c3C2)CC1 [Example 21-1, cis-4-(2-(1-(4-Fluorobenzyl)-3-(trifluoromethyl)-4,5-dihydro-1H-pyrazolo[3,4-c]pyridin-6(7H)-yl)-2-oxoethyl)cyclohexanecarbonitrile]	≥ 7.00
N#C[C@H]1CC[C@H](CC(=O)N2CCc3c(C(F)(F)F)nn(Cc4ccc(F)cc4)c3C2)CC1 [Example 21-2, trans-4-(2-(1-(4-Fluorobenzyl)-3-(trifluoromethyl)-4,5-dihydro-1H-pyrazolo[3,4-c]pyridin-6(7H)-yl)-2-oxoethyl)cyclohexanecarbonitrile]	≥ 7.00
